Reference: PMC3103057 (Journal of medicinal chemistry, 2011)

Columns and labels:
[1] = test system: wildtype and homozygous mutant N370S GC fibroblasts; test: Chaperone activity: translocation of GC to the lysosome in fibroblasts; assay type: cell-based, human; details: for amount of GC localized to the lysosome: 1 nM to 25 uM, five days incubation, wildtype and mutant fibroblasts; for lysosomal GC protein after treatment: 10 uM, wildtype and N370S GC fibroblasts, GC and LAMP1 antibody staining
[2] = test system: purified GC; test: Purified enzyme assays of GC activity without exogenous cofactors; assay type: biochemical; details: no exogenous activating cofactors
[3] = molecular target: T1, N370S glucocerebrosidase (GC) in tissue homogenate (Homo sapiens, UniProt P04062, N409S); assay type: biochemical; details: for reduction of activity (fold, relative to 26ad): N370S tissue homogenate AC50 compared with parent quinazoline 26ad
T1 sequence (P04062 40-536 N409S): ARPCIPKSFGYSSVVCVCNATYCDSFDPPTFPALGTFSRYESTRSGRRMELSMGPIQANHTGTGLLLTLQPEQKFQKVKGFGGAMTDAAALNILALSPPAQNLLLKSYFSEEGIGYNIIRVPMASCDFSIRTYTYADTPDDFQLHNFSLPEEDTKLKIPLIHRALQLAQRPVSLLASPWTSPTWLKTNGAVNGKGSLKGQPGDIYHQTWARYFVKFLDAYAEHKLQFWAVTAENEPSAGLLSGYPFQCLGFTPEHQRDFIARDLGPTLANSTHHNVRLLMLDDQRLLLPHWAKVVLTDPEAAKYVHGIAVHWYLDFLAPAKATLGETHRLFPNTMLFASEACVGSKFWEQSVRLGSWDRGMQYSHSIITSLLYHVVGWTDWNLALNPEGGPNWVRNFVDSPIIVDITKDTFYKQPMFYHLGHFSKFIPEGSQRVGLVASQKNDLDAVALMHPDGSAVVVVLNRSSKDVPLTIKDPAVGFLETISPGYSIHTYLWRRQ

`O=S(=O)(c1ccc2c(c1)OCCO2)N1CCN(c2nc(-c3cccs3)nc3ccccc23)CC1` [Compound 26bs, 4-(4-(2,3-dihydrobenzo[b][1,4]dioxin-6-ylsulfonyl)piperazin-1-yl)-2-(thiophen-2-yl)quinazoline] was tested. Which “amount of GC localized to the lysosome” value [1] did it give?
Its value is “clear increase of the amount of GC localized to the lysosome”.

`O=S(=O)(c1ccc(Cl)cc1)N1CCN(c2nc(-c3cccs3)nc3ccccc23)CC1` [Compound 10, 4-(4-(4-chlorophenylsulfonyl)piperazin-1-yl)-2-(thiophen-2-yl)quinazoline] was tested. Which “activity in purified enzyme assays of GC compared with tissue homogenate” value [2] did it give?
Its value is “greatly diminished”.

`Cc1ccc(S(=O)(=O)N2CCN(c3nc(-c4cccs4)nc4cccnc34)CC2)cc1` [Compound 72, 2-(thiophen-2-yl)-4-(4-tosylpiperazin-1-yl)pyrido[3,2-d]pyrimidine] was tested. Which “reduction of activity (fold, relative to 26ad)” value [3] did it give?
The value was “at least 10 times”.

Which “reduction of activity (fold, relative to 26ad)” value [3] does the source give for `Cc1ccc(S(=O)(=O)N2CCN(c3nc(-c4cccs4)nc4ncccc34)CC2)cc1` [Compound 73, 2-(thiophen-2-yl)-4-(4-tosylpiperazin-1-yl)pyrido[2,3-d]pyrimidine] here?
The value was “at least 10 times”.

For `Cc1ccc(S(=O)(=O)N2CCN(c3nc(-c4cccs4)nc4ccccc34)CC2)cc1` [Compound 26ad, 4-(4-(4-methylphenylsulfonyl)piperazin-1-yl)-2-(thiophen-2-yl)quinazoline], which “amount of GC localized to the lysosome” value [1] is on record?
Its value is “clear increase of the amount of GC localized to the lysosome”.

What about the IC50 ([3]; "blue" GC enzyme assay, tissue homogenate) of the same compound?
The IC50 was 320 nM.

`Cc1ccc(S(=O)(=O)N2CCN(c3nc(-c4cccs4)nc(C)c3C)CC2)cc1` [Compound 76, 4,5-dimethyl-2-(thiophen-2-yl)-6-(4-tosylpiperazin-1-yl)pyrimidine] was tested. Which “reduction of activity (fold, relative to 26ad)” value [3] did it give?
Its value is 10 times.

With `Cc1ccc(S(=O)(=O)N2CCN(c3ccnc(-c4cccs4)n3)CC2)cc1` [Compound 74, 2-(thiophen-2-yl)-4-(4-tosylpiperazin-1-yl)pyrimidine] as the compound, how does the “reduction of activity (fold, relative to 26ad)” value [3] read?
Its value is 32 times.

Which results are given for `O=S(=O)(c1ccc2ccccc2c1)N1CCN(c2nc(-c3cccs3)nc3ccccc23)CC1` [Compound 14]?
amount of GC localized to the lysosome [1]: clear increase of the amount of GC localized to the lysosome; lysosomal GC protein after treatment [1]: increased lysosomal GC protein

For `COc1ccccc1S(=O)(=O)N1CCN(c2nc(-c3cccs3)nc3ccccc23)CC1` [Compound 26ai, 4-(4-(2-methoxyphenylsulfonyl)piperazin-1-yl)-2-(thiophen-2-yl)quinazoline], which “amount of GC localized to the lysosome” value [1] is on record?
Its value is “clear increase of the amount of GC localized to the lysosome”.

Which “lysosomal GC protein after treatment” value [1] does the source give for `OC[C@H]1CNC[C@@H](O)[C@@H]1O` [Isofagomine, reference compound] here?
Its value is “increased lysosomal GC protein”.
